Measured values taken from ChEMBL document CHEMBL2073749, “Rat organic anion transporter 3 (rOAT3) is responsible for brain-to-blood efflux of homovanillic acid at the abluminal membrane of brain capillary endothelial cells” (J Cereb Blood Flow Metab, 2003).

Legend:
[1] = biological target: T1, Organic anion transporter 3 (OAT3) (Rattus norvegicus, UniProt Q9R1U7); assay: TP_TRANSPORTER: inhibition of Homovanillic acid uptake (HVA: 0.2 uM, PAH: 1000 uM) in Xenopus laevis oocytes; type: functional, cell-based, Oocyte; design: scale not given: the % may be the effect or the level left; settings: Xenopus laevis oocytes (Organic anion transporter 3), probe Homovanillic acid (HVA), read-out: Activity
T1 sequence (Q9R1U7 whole entry): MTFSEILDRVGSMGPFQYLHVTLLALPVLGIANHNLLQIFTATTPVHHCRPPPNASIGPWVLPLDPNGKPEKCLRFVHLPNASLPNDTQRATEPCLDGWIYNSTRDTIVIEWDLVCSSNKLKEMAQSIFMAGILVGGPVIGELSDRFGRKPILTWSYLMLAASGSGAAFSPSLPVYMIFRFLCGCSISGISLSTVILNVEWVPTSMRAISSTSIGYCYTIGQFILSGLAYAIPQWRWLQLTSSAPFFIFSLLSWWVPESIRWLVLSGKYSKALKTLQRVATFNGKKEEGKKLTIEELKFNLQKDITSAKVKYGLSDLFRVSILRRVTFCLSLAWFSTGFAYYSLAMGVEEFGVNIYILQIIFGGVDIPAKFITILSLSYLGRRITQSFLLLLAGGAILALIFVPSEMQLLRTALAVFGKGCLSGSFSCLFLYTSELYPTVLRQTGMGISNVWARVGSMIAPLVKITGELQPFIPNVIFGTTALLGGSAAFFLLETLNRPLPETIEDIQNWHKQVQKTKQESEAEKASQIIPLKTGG

[2] = biological target: T1, Organic anion transporter 3 (OAT3); assay: TP_TRANSPORTER: inhibition of Homovanillic acid uptake (HVA: 0.2 uM, Baclofen: 1000 uM) in Xenopus laevis oocytes; type: functional, cell-based, Oocyte; design: scale not given: the % may be the effect or the level left; settings: Xenopus laevis oocytes (Organic anion transporter 3), probe Homovanillic acid (HVA), read-out: Activity
[3] = biological target: T1, Organic anion transporter 3 (OAT3); assay: in vitro; settings: xenopus laevis, Xenopus laevis oocytes (Organic anion transporter 3), probe Homovanillic acid (HVA), 0.2 uM
Description: TP_TRANSPORTER: inhibition of Homovanillic acid uptake (HVA: 0.2 uM, Cimetidine: 1000 uM) in Xenopus laevis oocytes

[4] = biological target: T1, Organic anion transporter 3 (OAT3); assay: TP_TRANSPORTER: inhibition of Homovanillic acid uptake (HVA: 0.2 uM, E1S; 1000 uM) in Xenopus laevis oocytes; type: functional, cell-based, Oocyte; design: scale not given: the % may be the effect or the level left; settings: Xenopus laevis oocytes (Organic anion transporter 3), probe Homovanillic acid (HVA), read-out: Activity
[5] = biological target: T1, Organic anion transporter 3 (OAT3); assay: TP_TRANSPORTER: inhibition of Homovanillic acid uptake (HVA: 0.2 uM, Indomethacin: 1000 uM) in Xenopus laevis oocytes; type: functional, cell-based, Oocyte; design: scale not given: the % may be the effect or the level left; settings: Xenopus laevis oocytes (Organic anion transporter 3), probe Homovanillic acid (HVA), read-out: Activity
[6] = biological target: T1, Organic anion transporter 3 (OAT3); assay: TP_TRANSPORTER: inhibition of Homovanillic acid uptake (HVA: 0.2 uM, 6-mercaptopurine: 1000 uM) in Xenopus laevis oocytes; type: functional, cell-based, Oocyte; design: scale not given: the % may be the effect or the level left; settings: Xenopus laevis oocytes (Organic anion transporter 3), probe Homovanillic acid (HVA), read-out: Activity
[7] = biological target: T1, Organic anion transporter 3 (OAT3); assay: TP_TRANSPORTER: inhibition of Homovanillic acid uptake (HVA: 0.2 uM, PCG: 1000 uM) in Xenopus laevis oocytes; type: functional, cell-based, Oocyte; design: scale not given: the % may be the effect or the level left; settings: Xenopus laevis oocytes (Organic anion transporter 3), probe Homovanillic acid (HVA), read-out: Activity
[8] = biological target: T1, Organic anion transporter 3 (OAT3); assay: TP_TRANSPORTER: inhibition of Homovanillic acid uptake (HVA: 0.2 uM, Probenecid: 1000 uM) in Xenopus laevis oocytes; type: functional, cell-based, Oocyte; design: scale not given: the % may be the effect or the level left; settings: Xenopus laevis oocytes (Organic anion transporter 3), probe Homovanillic acid (HVA), read-out: Activity
[9] = substrate: COc1cc(CC(=O)O)ccc1O; assay: TP_TRANSPORTER: uptake in Xenopus laevis oocytes; type: functional, cell-based, Oocyte

Molecule: Nc1ccc(C(=O)NCC(=O)O)cc1 [AMINOHIPPURIC ACID]
- activity at 1000 µM [1]: 20.3%

Molecule: NCC(CC(=O)O)c1ccc(Cl)cc1 (centres undefined) [BACLOFEN]
- activity at 1000 µM [2]: 23.2%

Molecule: CN/C(=N/CCSCc1nc[nH]c1C)NC#N [CIMETIDINE]
- activity at 1000 µM [3]: 24.5%

Molecule: C[C@]12CC[C@@H]3c4ccc(OS(=O)(=O)O)cc4CC[C@H]3[C@@H]1CCC2=O [ESTRONE SULFURIC ACID]
- activity at 1000 µM [4]: 4.35%

Molecule: COc1ccc2c(c1)c(CC(=O)O)c(C)n2C(=O)c1ccc(Cl)cc1 [INDOMETHACIN]
- activity at 1000 µM [5]: 40.9%

Molecule: Sc1ncnc2nc[nH]c12 [MERCAPTOPURINE ANHYDROUS]
- activity at 1000 µM [6]: 8.67%

Molecule: CC1(C)S[C@@H]2[C@H](NC(=O)Cc3ccccc3)C(=O)N2[C@H]1C(=O)O [PENICILLIN G]
- activity at 1000 µM [7]: 1.01%

Molecule: CCCN(CCC)S(=O)(=O)c1ccc(C(=O)O)cc1 [PROBENECID]
- activity at 1000 µM [8]: 23.4%

B1: Organic anion transporter 3 (Rattus norvegicus) (protein)
chain: T1 sequence (Q9R1U7 whole entry)
- Km [9]: 274 µM
